Key:
Format in all cases: in vivo
[1] = test system: Abutilon theophrasti; assay: Post-emergence herbicidal efficacy at 320 g/ha, ABUTH; conditions: rated visually after about 3 weeks vs untreated controls, 100% = plants have died
Description: (§1) Unwanted plants/weeds: • ABUTH: Abutilon theophrasti • ALOMY: Alopecurus myosuroides • AMARE: Amaranthus retroflexus • DIGSA: Digitaria sanguinalis • ECHCG: Echinochloa crus-galli • KCHSC: Kochia scoparia • LOLRI: Lolium rigidum • MATIN: Matricaria inodora • POAAN: Poa annua • POLCO: Polygonum convolvulus • SETVI: Setaria viridis • STEME: Stellaria media • VERPE: Veronica persica • VIOTR: Viola tricolor A. Post-Emergence Herbicidal Efficacy at 320 g/ha
(§2) Seeds of mono- and dicotyledonous weed plants were placed in plastic pots in sandy loam soil (doubly sown with in each case one species of mono- or dicotyledonous weed plants per pot), covered with soil and cultivated in a greenhouse under controlled growth conditions. 2 to 3 weeks after sowing, the test plants were treated at the one-leaf stage. The compounds of the invention, formulated in the form of wettable powders (WP) or as emulsion concentrates (EC), were applied to the green parts of the plants as aqueous suspension or emulsion with addition of 0.5% additive at a water application rate equivalent to 600 litres per hectare. After the test plants had been kept in the greenhouse under optimum growth conditions for about 3 weeks, the activity of the preparations was rated visually in comparison to untreated controls.
(§3) For example, 100% activity=the plants have died, 0% activity=like control plants.
(§4) Tables A1 to A10 below show the effects of selected compounds of the general formula (I) according to Table 1 on various harmful plants and at an application rate corresponding to 320 g/ha, which were obtained by the trial procedure specified above.

[2] = test system: Amaranthus retroflexus; assay: Post-emergence herbicidal efficacy at 320 g/ha, AMARE; conditions: rated visually after about 3 weeks vs untreated controls, 100% = plants have died
Description: as §1, §2, §3, §4

[3] = test system: Kochia scoparia; assay: Post-emergence herbicidal efficacy at 320 g/ha, KCHSC; conditions: rated visually after about 3 weeks vs untreated controls, 100% = plants have died
Description: as §1, §2, §3, §4

[4] = test system: Setaria viridis; assay: Post-emergence herbicidal efficacy at 320 g/ha, SETVI; conditions: rated visually after about 3 weeks vs untreated controls, 100% = plants have died
Description: as §1, §2, §3, §4

[5] = test system: Stellaria media; assay: Post-emergence herbicidal efficacy at 320 g/ha, STEME; conditions: rated visually after about 3 weeks vs untreated controls, 100% = plants have died
Description: as §1, §2, §3, §4

[6] = test system: Veronica persica; assay: Post-emergence herbicidal efficacy at 320 g/ha, VERPE; conditions: rated visually after about 3 weeks vs untreated controls, 100% = plants have died
Description: as §1, §2, §3, §4

[7] = test system: Amaranthus retroflexus; assay: Pre-emergence herbicide efficacy at 320 g/ha, AMARE; conditions: scored visually after about 3 weeks vs untreated controls, 100% = plants have died
Description: as §1
(§5) Seeds of mono- and dicotyledonous weed plants were placed in plastic pots in sandy loam soil (doubly sown with one species each of mono- or dicotyledonous weed plants per pot) and covered with soil. The compounds of the invention, formulated in the form of wettable powders (WP) or as emulsion concentrates (EC), were then applied to the surface of the covering soil as aqueous suspension or emulsion with addition of 0.5% additive at a water application rate of 600 litres per hectare (converted). After the treatment, the pots were placed in a greenhouse and kept under good growth conditions for the test plants. After about 3 weeks, the efficacy of the preparations was scored visually in comparison with untreated controls as percentages.
as §3
(§6) Tables C1 to C12 below show the effects of selected compounds of the general formula (I) according to Table 1 on various harmful plants and at an application rate corresponding to 320 g/ha, which were obtained by the trial procedure specified above.

[8] = test system: Digitaria sanguinalis; assay: Pre-emergence herbicide efficacy at 320 g/ha, DIGSA; conditions: scored visually after about 3 weeks vs untreated controls, 100% = plants have died
Description: as §1, §5, §3, §6

[9] = test system: Kochia scoparia; assay: Pre-emergence herbicide efficacy at 320 g/ha, KCHSC; conditions: scored visually after about 3 weeks vs untreated controls, 100% = plants have died
Description: as §1, §5, §3, §6

[10] = test system: Veronica persica; assay: Pre-emergence herbicide efficacy at 320 g/ha, VERPE; conditions: scored visually after about 3 weeks vs untreated controls, 100% = plants have died
Description: as §1, §5, §3, §6

[11] = test system: Digitaria sanguinalis; assay: Post-emergence herbicidal efficacy at 320 g/ha, DIGSA; conditions: rated visually after about 3 weeks vs untreated controls, 100% = plants have died
Description: as §1, §2, §3, §4

[12] = test system: Echinochloa crus-galli; assay: Post-emergence herbicidal efficacy at 320 g/ha, ECHCG; conditions: rated visually after about 3 weeks vs untreated controls, 100% = plants have died
Description: as §1, §2, §3, §4

[13] = test system: Echinochloa crus-galli; assay: Pre-emergence herbicide efficacy at 320 g/ha, ECHCG; conditions: scored visually after about 3 weeks vs untreated controls, 100% = plants have died
Description: as §1, §5, §3, §6

[14] = test system: Poa annua; assay: Pre-emergence herbicide efficacy at 320 g/ha, POAAN; conditions: scored visually after about 3 weeks vs untreated controls, 100% = plants have died
Description: as §1, §5, §3, §6

[15] = test system: Setaria viridis; assay: Pre-emergence herbicide efficacy at 320 g/ha, SETVI; conditions: scored visually after about 3 weeks vs untreated controls, 100% = plants have died
Description: as §1, §5, §3, §6

[16] = test system: Stellaria media; assay: Pre-emergence herbicide efficacy at 320 g/ha, STEME; conditions: scored visually after about 3 weeks vs untreated controls, 100% = plants have died
Description: as §1, §5, §3, §6

[17] = test system: Matricaria inodora; assay: Pre-emergence herbicide efficacy at 320 g/ha, MATIN; conditions: scored visually after about 3 weeks vs untreated controls, 100% = plants have died
Description: as §1, §5, §3, §6

[18] = test system: Amaranthus retroflexus; assay: Post-emergence herbicidal efficacy at 80 g/ha, AMARE; conditions: rated visually after about 3 weeks vs untreated controls, 100% = plants have died
Description: as §1
(§7) Seeds of monocotyledonous and dicotyledonous weeds and crop plants were placed in sandy loam in plastic or organic planting pots, covered with soil and cultivated in a greenhouse under controlled growth conditions. 2 to 3 weeks after sowing, the test plants were treated at the one-leaf stage. The compounds of the invention, formulated in the form of wettable powders (WP) or as emulsion concentrates (EC), were then sprayed onto the green parts of the plants as aqueous suspension or emulsion with addition of 0.5% additive at a water application rate of 600 l/ha (converted). After the test plants had been kept in the greenhouse under optimum growth conditions for about 3 weeks, the activity of the preparations was rated visually in comparison to untreated controls. For example, 100% activity=the plants have died, 0% activity=like control plants.
(§8) Tables B1 to B11 below show the effects of selected compounds of the general formula (I) according to Table 1 on various harmful plants and an application rate corresponding to 80 g/ha, which were obtained by the experimental procedure mentioned above.

[19] = test system: Kochia scoparia; assay: Post-emergence herbicidal efficacy at 80 g/ha, KCHSC; conditions: rated visually after about 3 weeks vs untreated controls, 100% = plants have died
Description: as §1, §7, §8

[20] = test system: Veronica persica; assay: Post-emergence herbicidal efficacy at 80 g/ha, VERPE; conditions: rated visually after about 3 weeks vs untreated controls, 100% = plants have died
Description: as §1, §7, §8

[21] = test system: Amaranthus retroflexus; assay: Pre-emergence herbicide efficacy at 80 g/ha, AMARE; conditions: scored visually after about 3 weeks vs untreated controls, 100% = plants have died
Description: as §1
(§9) Seeds of monocotyledonous and dicotyledonous weed plants and crop plants were placed in plastic or organic planting pots and covered with soil. The compounds of the invention, formulated in the form of wettable powders (WP) or as emulsion concentrates (EC), were then applied to the surface of the covering soil as aqueous suspension or emulsion with addition of 0.5% additive at a water application rate equivalent to 600 l/ha. After the treatment, the pots were placed in a greenhouse and kept under good growth conditions for the test plants. After about 3 weeks, the efficacy of the preparations was scored visually in comparison with untreated controls as percentages. For example, 100% activity=the plants have died, 0% activity=like control plants.
(§10) Tables D1 to D12 below show the effects of selected compounds of the general formula (I) according to Table 1 on various harmful plants and an application rate corresponding to 80 g/ha, which were obtained by the experimental procedure mentioned above.

[22] = test system: Digitaria sanguinalis; assay: Pre-emergence herbicide efficacy at 80 g/ha, DIGSA; conditions: scored visually after about 3 weeks vs untreated controls, 100% = plants have died
Description: as §1, §9, §10

[23] = test system: Kochia scoparia; assay: Pre-emergence herbicide efficacy at 80 g/ha, KCHSC; conditions: scored visually after about 3 weeks vs untreated controls, 100% = plants have died
Description: as §1, §9, §10

[24] = test system: Poa annua; assay: Post-emergence herbicidal efficacy at 320 g/ha, POAAN; conditions: rated visually after about 3 weeks vs untreated controls, 100% = plants have died
Description: as §1, §2, §3, §4

SMILES | Post-emergence efficacy at 320 g/ha against AMARE in % [2] [%] | Post-emergence efficacy at 320 g/ha against KCHSC in % [3] [%] | Post-emergence efficacy at 320 g/ha against STEME in % [5] [%] | Post-emergence efficacy at 320 g/ha against VERPE in % [6] [%] | Pre-emergence efficacy at 320 g/ha against AMARE in % [7] [%] | Pre-emergence efficacy at 320 g/ha against DIGSA in % [8] [%] | Pre-emergence efficacy at 320 g/ha against KCHSC in % [9] [%] | Pre-emergence efficacy at 320 g/ha against VERPE in % [10] [%] | Pre-emergence efficacy at 320 g/ha against POAAN in % [14] [%] | Pre-emergence efficacy at 320 g/ha against SETVI in % [15] [%] | Pre-emergence efficacy at 320 g/ha against STEME in % [16] [%] | Pre-emergence efficacy at 320 g/ha against MATIN in % [17] [%] | also measured
COCc1cnn(-c2c(C#N)cccc2Nc2ncc(Cl)cn2)c1 [Example 1-68] | 100 | 100 | 100 | 100 | 100 | 100 | 100 | 90 |  |  |  |  | Post-emergence efficacy at 320 g/ha against ABUTH in % [1]: 90%; Post-emergence efficacy at 320 g/ha against SETVI in % [4]: 90%
Fc1cccc(Nc2ncc(Cl)cn2)c1-n1cc(C(F)(F)F)cn1 [Example 1-47] | 90 |  | 90 | 90 | 100 | 90 |  | 100 | 100 | 100 | 90 |  | Post-emergence efficacy at 320 g/ha against ABUTH in % [1]: 90%; Post-emergence efficacy at 320 g/ha against DIGSA in % [11]: 90%; Post-emergence efficacy at 320 g/ha against ECHCG in % [12]: 90%; Post-emergence efficacy at 320 g/ha against SETVI in % [4]: 90%; Pre-emergence efficacy at 320 g/ha against ECHCG in % [13]: 100%
N#Cc1cccc(Nc2ncccn2)c1-n1cc(C(F)(F)F)cn1 [Example 1-40] | 90 |  |  | 90 | 100 |  | 90 |  |  |  |  | 90 | 
Clc1cnc(Cc2ccccc2Nc2ncc(Cl)cn2)nc1 [Example 1-51] |  |  |  |  |  |  |  |  |  |  |  |  | Post-emergence efficacy at 80 g/ha against AMARE in % [18]: 100%; Post-emergence efficacy at 80 g/ha against KCHSC in % [19]: 100%; Post-emergence efficacy at 80 g/ha against VERPE in % [20]: 80%; Pre-emergence efficacy at 80 g/ha against AMARE in % [21]: 100%; Pre-emergence efficacy at 80 g/ha against DIGSA in % [22]: 80%; Pre-emergence efficacy at 80 g/ha against KCHSC in % [23]: 100%
N#Cc1cnc(Nc2cccc(C#N)c2-n2cc(C(F)(F)F)cn2)nc1 [Example 1-42] | 100 | 90 |  | 90 | 90 | 100 | 90 |  |  | 90 | 90 | 100 | 
N#Cc1cccc(Nc2ncc(F)cn2)c1-c1ccc(F)c(F)c1 [Example 1-30] | 100 | 100 | 100 | 100 | 100 | 100 | 90 | 100 | 90 | 100 | 100 | 90 | 
N#Cc1cccc(Nc2ncc(Cl)cn2)c1Cc1ccc(F)cc1 [Example 1-23] | 100 |  | 100 | 100 | 100 | 90 |  | 90 | 100 | 100 | 90 | 100 | Post-emergence efficacy at 320 g/ha against POAAN in % [24]: 100%
